ChEMBL document CHEMBL3045262, “Synthesis and Insecticidal Activity of Novel 1-Benzoyl-3-phenylurea Derivatives with Polyfluoroethylsulfenyl, -sulfonyl, and-sulfinyl Substituents” (1992)

Key:
Type in all cases: functional
Adoxophyes orana [1] = assay: Larvicidal activity against second-instar larvae of Adoxophyes orana infested soybean seedling assessed as mortality at 20 ppm measured after 7 days; details: 168 h
Plutella xylostella [2] = assay: Larvicidal activity against second-instar larvae of Plutella xylostella (diamondback moth) infested raddish seedling assessed as mortality at 3.3 ppm sprayed 2 hr prior to infestation measured after 4 days
Spodoptera litura [3] = assay: Larvicidal activity against third-instar larvae of Spodoptera litura infested in soybean seedling assessed as mortality at 2 ppm sprayed 6 days prior to infestation measured after 5 days
Spodoptera litura [4] = assay: Larvicidal activity against third-instar larvae of Spodoptera litura infested in soybean seedling assessed as mortality at 2 ppm sprayed 1 day prior to infestation measured after 5 days
Plutella xylostella [5] = assay: Larvicidal activity against second-instar larvae of Plutella xylostella (diamondback moth) infested raddish seedling assessed as mortality at 50 ppm sprayed 2 hr prior to infestation measured after 4 days
Adoxophyes orana [6] = assay: Larvicidal activity against second-instar larvae of Adoxophyes orana infested soybean seedling assessed as mortality at 5 ppm measured after 7 days; details: 168 h

| SMILES | mortality at 20 ppm (Adoxophyes orana [1]) | mortality at 3.3 ppm (Plutella xylostella [2]) | mortality at 2 ppm (Spodoptera litura [3]) | mortality at 2 ppm (Spodoptera litura [4]) | mortality at 50 ppm (Plutella xylostella [5]) | mortality at 5 ppm (Adoxophyes orana [6]) |
| --- | --- | --- | --- | --- | --- | --- |
| O=C(NC(=O)c1c(F)cccc1F)Nc1ccc(SC(F)(F)C(F)F)c(Cl)c1 | 65% | 100% | 100% | 100% | – | – |
| O=C(NC(=O)c1c(F)cccc1F)Nc1ccc(Cl)cc1 [DIFLUBENZURON] | 20% | – | 15% | 20% | 20% | – |
| O=C(NC(=O)c1c(F)cccc1F)Nc1ccc(SC(F)(F)C(F)F)c(Cl)c1Cl | – | 100% | 100% | 100% | – | 100% |
| O=C(NC(=O)c1c(F)cccc1F)Nc1ccc(S(=O)(=O)C(F)(F)C(F)Cl)cc1Cl (stereo unspecified) | – | 95% | 100% | 100% | – | 100% |
| Cc1cc(S(=O)(=O)C(F)(F)C(F)F)ccc1NC(=O)NC(=O)c1c(F)cccc1F | – | 100% | 100% | 100% | – | 100% |
| O=C(NC(=O)c1c(F)cccc1F)Nc1ccc(SC(F)(F)C(F)F)cc1Br | – | 100% | 100% | 100% | – | 100% |
| O=C(NC(=O)c1c(F)cccc1F)Nc1ccc(S(=O)(=O)C(F)(F)C(F)F)c(Cl)c1 | – | 80% | 35% | 60% | – | 100% |
| Cc1cc([S+]([O-])C(F)(F)C(F)F)ccc1NC(=O)NC(=O)c1c(F)cccc1F (stereo unspecified) | – | 100% | 100% | 100% | – | 100% |
| O=C(NC(=O)c1c(F)cccc1F)Nc1ccc(SC(F)(F)C(F)F)cc1F | – | 100% | 100% | 100% | – | 80% |
| Cc1c(NC(=O)NC(=O)c2c(F)cccc2F)ccc([S+]([O-])C(F)(F)C(F)F)c1C (stereo unspecified) | – | 100% | 100% | 100% | – | 90% |
| O=C(NC(=O)c1c(F)cccc1F)Nc1ccc([S+]([O-])C(F)(F)C(F)Cl)cc1F (stereo unspecified) | – | 100% | 100% | 100% | – | 100% |
| Cc1cc(SC(F)(F)C(F)F)c(C)cc1NC(=O)NC(=O)c1c(F)cccc1F | – | 85% | 100% | 100% | – | 90% |
| Cc1c(NC(=O)NC(=O)c2c(F)cccc2F)ccc([S+]([O-])C(F)(F)C(F)Cl)c1C (stereo unspecified) | – | 100% | 100% | 100% | – | 100% |
| Cc1cc(NC(=O)NC(=O)c2c(F)cccc2F)ccc1SC(F)(F)C(F)F | – | 100% | 100% | 100% | – | 0% |
| O=C(NC(=O)c1c(F)cccc1F)Nc1ccc(SC(F)(F)C(F)F)cc1 | – | 100% | 20% | 55% | – | 5% |
| O=C(NC(=O)c1c(F)cccc1F)Nc1ccc([S+]([O-])C(F)(F)C(F)Cl)c(Cl)c1Cl (stereo unspecified) | – | 100% | 100% | 100% | – | 100% |
| Cc1cc(SC(F)(F)C(F)Cl)ccc1NC(=O)NC(=O)c1c(F)cccc1F (stereo unspecified) | – | 100% | 100% | 100% | – | 95% |
| Cc1c(NC(=O)NC(=O)c2c(F)cccc2F)ccc(SC(F)(F)C(F)Cl)c1C (stereo unspecified) | – | 100% | 100% | 100% | – | 100% |
| Cc1cc([S+]([O-])C(F)(F)C(F)Cl)ccc1NC(=O)NC(=O)c1c(F)cccc1F (stereo unspecified) | – | 100% | 100% | 100% | – | 100% |
